Data reported in PubChem BioAssay AID463229 (Broad Institute, 2010).
Several values for one entry are separate records, joined by “and”; a condition that tells them apart may be missing. Equal entries are not always repeated. Activity calls are given as the source filed them.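 Rule for the calls: active = compounds raising the signal whose fitted half-maximal concentration is at or below their top tested dose (cut at about 25 µM in these data); inconclusive = flat fit at 30 to 70% activity, or a poor fit; inactive = the rest.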

system: INS-1E rat beta cells, no cytokines, CellTiter-Glo ATP, 48 h; assay: cytokine-free beta-cell viability effect – INS-1E rat cells, ATP luminescence, cherry pick, counter-screen for beta-cell apoptosis protection project, dose response (AID 463229)

Row | SMILES | AC50
1 | CCc1ccc2[nH]c(=O)c(C3C(C#N)=C(N)Oc4c3ccc3cccnc43)cc2c1 (stereo not drawn) | 5.4 µM
2 | CCOC(=O)C1CCN(C(=O)c2c(C)oc3c2C(=O)c2ccccc2C3=O)CC1 | 17.4 µM
3 | O=c1c2ccccc2nc(COc2ccccc2)n1/N=C/c1cc([N+](=O)[O-])ccc1O | 14.7 µM
4 | CCCCCCc1cc2cc(-c3nnc(-c4ccccc4O)o3)c(=O)oc2cc1O | 7.66 µM
5 | O=C(N/N=C\c1ccc([N+](=O)[O-])s1)c1cncc(Br)c1 | 6.53 µM
6 | COc1ccc(-n2cc(-c3ccc(OC(F)F)cc3)[n+]3c2CCCCC3)cc1 | 2.07 µM
7 | COc1ccc(/C=N/Nc2cc(C)nc3ccc(Br)cc23)cc1 | 7.02 µM
8 | CC(CCCC(C)(C)O)NC(=O)c1cc(COc2ccc3ncccc3c2)on1 (stereo not drawn) | 8.48 µM
9 | O=C(NCCCn1ccnc1)c1ccc(N2CCCCCC2)c([N+](=O)[O-])c1 | 8.09 µM
10 | CCN(Cc1ccccc1)C(c1cccs1)c1nnnn1C1CCCCC1 (stereo not drawn) | 13.4 µM
11 | Cc1ccc(S(=O)(=O)CC2CSc3nc4ccccc4n32)cc1 (stereo not drawn) | 6.51 µM
12 | Nc1ccccc1C#CC(=O)c1ccccc1 | 11.9 µM
13 | Oc1ccc(Br)cc1-c1cc(-c2ccc(Cl)cc2)n[nH]1 | 11.1 µM
14 | Cc1ccc(O)c(N=Nc2nccs2)c1 | 7.04 µM
15 | CC1CCC(C(C)C)C(OC(=O)Cn2c(-c3ccccc3)[n+](C)c3ccccc32)C1 (stereo not drawn) | 2.76 µM and 3.37 µM
16 | CCOC(=O)N1CCN(Cc2cc(Cl)c3cccnc3c2O)CC1 | 13.2 µM
17 | C(=N\Nc1ncnc2sc3c(c12)CCC3)/c1cccs1 | 9.08 µM
18 | O=C(NCc1cccnc1)c1ccc([N+](=O)[O-])cc1 | 5.86 µM
19 | COC(=O)c1ccc2c(c1)C(C)(C)C(/C=C/c1ccc(OC)c(OC)c1OC)=[N+]2C | 2.16 µM
20 | CCCNC1=C(N(C(C)=O)c2cccc(F)c2)C(=O)c2ccccc2C1=O | 3.06 µM
21 | c1ccc(C(c2ccccc2)N2CCN(c3nc4ccccc4n4cnnc34)CC2)cc1 | 4.73 µM
22 | COc1cc(CSc2nnnn2-c2ccc(C)cc2)cc(OC)c1OC | 4.46 µM

Row | SMILES | AC50
23 | Cc1ccc(C2C(C=Nc3c(C)n(C)n(-c4ccccc4)c3=O)=C(c3ccccc3)Oc3ccccc32)cc1 (stereo not drawn) | 7.38 µM
24 | c1ccc2c(CN3CCCCCCC3)c[nH]c2c1 | 4.48 µM
25 | Cc1cc(N2CCN(c3nc4ccccc4s3)CC2)n2ncnc2n1 | 7.32 µM
26 | C=CCn1c(SCC(=O)c2[nH]c(C)c(C(=O)OCC)c2C)nc2scc(-c3ccc(OC)c(OC)c3)c2c1=O | 3.53 µM
27 | Cc1ccc(C(=O)c2c(C)oc3c2C(=O)C(=O)c2ccccc2-3)cc1 | 2.92 µM
28 | CC[C@H](C)Cc1cn([C@@H](CCCCNC(=O)OC(C)(C)C)C(=O)NCCCCCCCCCCC(=O)N2CCN(C(=O)OC(C)(C)C)CC2)nn1 | 20.2 µM
29 | Cc1ccc(-c2nc(NC(=O)c3nn(C)cc3[N+](=O)[O-])sc2C)cc1 | 5.47 µM
30 | COC(=O)c1ccccc1NC1=C/C(=N\S(=O)(=O)c2cccs2)c2ccccc2C1=O | 8.33 µM
31 | N/C(=N\NC(=O)c1sccc1OCc1ccc(Cl)cc1Cl)c1ccccn1 | 11.8 µM
32 | CC(C)(C)c1ccc(C2CC2C(=O)N/N=C\c2ccc[nH]2)cc1 (stereo not drawn) | 0.987 µM
33 | Cc1cccc(Nc2nc(NCc3ccco3)c3ccccc3n2)c1 | 8.03 µM
34 | O=[N+]([O-])c1ccccc1-c1cc(-c2ccccc2)cc(-c2ccccc2)[n+]1Cc1ccccc1Cl | 2.23 µM
35 | O=C(c1cnc(N2CCN(c3ccccn3)CC2)c2ccccc12)N1CCN(c2cccc(Cl)c2)CC1 | 7.59 µM
36 | O=C1C(=O)c2ccc(-c3ccccc3)cc2-c2ccccc21 | 1.1 µM
37 | c1ccc2c(NCCCN3CCOCC3)c3ccccc3nc2c1 | 6.37 µM
38 | CCCOc1ccc(Cc2c(Cl)nc(SC)nc2NC)cc1 | 6.05 µM
39 | O=C(Nc1cc(S(=O)(=O)Nc2ccc(Cl)cc2)ccc1N1CCCCC1)c1ccc(F)cc1 | 7.6 µM
40 | O=C(NCCc1cn2ccccc2n1)c1cc(COc2ccc3ncccc3c2)on1 | 8.04 µM
41 | Cc1cc(-c2ccccc2)cc(-c2ccccc2)[n+]1CCc1ccccc1 | < 0.195 µM
42 | C#CCOCCOCCOCCNc1nc(N2CCN(C(=O)CCCCCCCCCCNC(=O)Cn3cc(C[C@@H](C)O)nn3)CC2)nc(N2CCN(C(=O)CCCCCCCCCCNC(=O)[C@@H]([C@H](C)CC)n3cc(CCCCCN)nn3)CC2)n1 | 7.83 µM
43 | CC(C)(C)c1ccc(/C=C(\c2nc3ccccc3[nH]2)S(=O)(=O)c2ccccc2)cc1 | 7.37 µM
44 | O=S(=O)(c1cc(F)ccc1F)N1CCN(c2ncnc3ccccc23)CC1 | 5.01 µM

Row | SMILES | AC50
45 | O=C(Nc1cccc(NC(=O)c2ccccc2Cl)c1)c1ccc([N+](=O)[O-])o1 | 7.58 µM
46 | CCOC(=O)c1sc(NC(=O)c2c(C)nn(Cc3ccccc3)c2C)cc1C | > 26 µM (inactive)
47 | CC(C)(C)c1ccc(C(O)CCCN2CCC(C(O)(c3ccccc3)c3ccccc3)CC2)cc1 (stereo not drawn) | 8.16 µM
48 | CCOC(=O)C(C(C)=O)c1c(Br)c(O)c(O)c2c(C(=O)c3ccc(C)cc3)coc12 (stereo not drawn) | 2.9 µM
49 | COc1ccccc1C(=O)Nc1nc2ccccc2[nH]1 | 1.22 µM
50 | CCCCC(=O)NC(c1cccs1)c1cc(Cl)c2cccnc2c1O (stereo not drawn) | 5.89 µM
51 | O=[N+]([O-])c1cc(/C=N/Nc2nc3ccccc3[nH]2)c(O)cc1O | 2.01 µM
52 | Cc1ccc(-c2cc3cccc[n+]3cc2-c2ccc(C)cc2)cc1 | 0.566 µM
53 | COc1ccc(Cc2nnc(N/N=C/c3ccc(O)cc3)[nH]c2=O)cc1OC | 4.32 µM
54 | Cc1occc1C(=O)N/N=C/c1ccc2c(c1)OCO2 | 5.48 µM
55 | O=C(Nc1nc(-c2ccccn2)cs1)c1ccc(Cl)s1 | 4.38 µM
56 | Cc1ccc(S(=O)(=O)NCc2ccncc2)cc1C | 4.92 µM
57 | C#CCn1c(=NC(=O)c2ccc(S(=O)(=O)N3CCc4ccccc4C3)cc2)sc2cc(S(N)(=O)=O)ccc21 | 3.64 µM
58 | O=C(Nc1nc2c(F)cc(F)cc2s1)c1ccccn1 | 6.37 µM
59 | NC(=O)c1c(-c2ccc(Cl)cc2Cl)csc1NC(=O)Cc1ccccc1 | 4.08 µM
60 | COc1ccc(/C=C2\CN(Cc3ccccc3)C/C(=C\c3ccc(OC)c(O)c3)C2=O)cc1O | 4.75 µM
61 | CC(C)OCCCNc1ncnc2c1[nH]c1ccc(F)cc12 | 2.46 µM
62 | O=C(Nc1nc(-c2ccccn2)cs1)c1cc(Cl)ccc1[N+](=O)[O-] | 4.6 µM
63 | O=C(NCc1cccnc1)/C(=C\c1ccc(-c2cccc(Cl)c2)o1)S(=O)(=O)c1ccccc1 | 6.78 µM
64 | COc1cc(CNC2CCCC2)cc(Cl)c1OCc1ccccc1Cl | 14.6 µM
65 | COc1ccc(C(=O)N/N=C/c2sc3ccccc3c2O)cc1 | 7.83 µM
66 | N#CC(c1cccc(Cl)c1)c1ccc2c(C(F)(F)F)cc(C(F)(F)F)nc2n1 (stereo not drawn) | 0.868 µM

Row | SMILES | AC50
67 | COc1ccc(/C=C/c2nc3ccccc3n2C)cc1 | 3.13 µM
68 | CC(C)Oc1ccc(S(=O)(=O)N2CCCCC2)cc1NC(=O)CN1CCCC1c1cccs1 (stereo not drawn) | 6.59 µM
69 | CC(C)c1nc(-c2ccccc2)c(-c2ccccc2)[nH]1 | 6.81 µM
70 | O=C(C1CCC1)N1CCc2cc(S(=O)(=O)Nc3ccc4c(c3)OCCO4)ccc21 | 7.92 µM
71 | C/C(=N\N1C(=O)c2ccccc2NC1c1ccco1)c1ccccc1O (stereo not drawn) | 12.5 µM
72 | O=C(CCSc1nc2ccccc2s1)N/N=C/c1c(O)ccc2ccccc12 | 5.5 µM
73 | COc1ccc(Cn2cc3c(-c4ccc(F)cc4)nnc-3c3cc(OC)c(OC)cc32)cc1 | 9.02 µM
74 | Cc1ccc2c(c1)nnn2C1CCN(S(=O)(=O)c2ccc(C(=O)N3C(C)CCCC3C)cc2)CC1 (stereo not drawn) | 7.75 µM
75 | CN1/C(=C\C(=S)Nc2ccccc2)C(C)(C)c2ccccc21 | 10.1 µM
76 | COc1ccc(S(=O)(=O)N(C(=O)c2ccco2)c2cc3sc(=O)oc3c3ccccc23)cc1 | 14.5 µM
77 | CCC(C)c1ccc(NC(=S)NC2CCN(Cc3ccccc3)CC2)cc1 (stereo not drawn) | 10.4 µM
78 | COc1ccccc1NC1=C(N2CCCCC2)C(=O)c2ccccc2C1=O | 2.21 µM
79 | CCOc1ccc(Nc2c3ccccc3nc3ccccc23)cc1 | 7.36 µM
80 | COc1ccc(OC)c(NC(=O)c2nc(S(=O)(=O)Cc3ccccc3)ncc2Cl)c1 | 7.87 µM
81 | CC1=NN(c2nc3ccccc3[nH]2)C(=O)/C1=C/N(C)C | 2.9 µM
82 | O=C(/C=C/NNC(=O)c1ccccc1)c1ccc([N+](=O)[O-])cc1 | 5.76 µM
83 | CC(C)(C)c1cc(C(=O)N/N=C/c2ccccc2O)n(-c2ccccc2)n1 | 10.1 µM
84 | CC(=O)c1cccc(N=c2scc(-c3ccc(S(=O)(=O)N4CCOCC4)cc3)n2CCO)c1 | 3.22 µM
85 | CN(C)S(=O)(=O)c1ccc(Nc2nc(C3CC3)nc3c2nnn3Cc2ccccc2Cl)cc1 | 7 µM
86 | CCc1ccc(-c2nn(-c3ccccc3)cc2CSC(=N)N)cc1 | 8.32 µM
87 | O=C(NC(c1ccc(Cl)cc1)c1cc(Cl)c2cccnc2c1O)c1cccnc1 (stereo not drawn) | 6.6 µM
88 | O=[N+]([O-])c1cccc2c(N3CCCC3)ccnc12 | 7.28 µM

Row | SMILES | AC50
89 | O=[N+]([O-])c1c(Nc2ccc(O)cc2)cc(Cl)c2nonc12 | 8.76 µM
90 | COc1cc(N/N=C/c2ccccc2O)ncn1 | 16.2 µM
91 | CNC(=O)c1sc(N2N=C3/C(=C/c4ccccc4)CCCC3C2c2ccccc2)nc1C (stereo not drawn) | 5.11 µM
92 | COc1ccc(Cn2c(SCc3cc(C)ccc3C)nc3cc(OC)c(OC)cc3c2=N)cc1 | 7.22 µM
93 | C=C(C(=O)c1ccccc1)C(C(=C)C(=O)c1ccccc1)c1ccc(OC)cc1 | 7.54 µM
94 | Cc1ccc(NC(=O)Cn2c(=O)oc3cc(S(=O)(=O)N4CCC(C)CC4)ccc32)cc1C | 16 µM
95 | COc1ccc2nc(N=Nc3ccc(O)c4ccccc34)sc2c1 | 7.16 µM
96 | COc1cccc(/C=N/NC(=O)CN2CC(c3ccccc3)CC2=O)c1O (stereo not drawn) | 18.7 µM
97 | Cc1cc(-n2c(SCC(=O)Nc3ccc(F)c(F)c3)nc3n[nH]c(C)c3c2=N)ccc1Cl | 5.84 µM
98 | CCCC(=O)NC(NC(=S)Nc1ccc(N=Nc2ccccc2)cc1)C(Cl)(Cl)Cl (stereo not drawn) | 7.51 µM
99 | CCCOc1nc2c(c(=O)n(C)c(=O)n2C)n1Cc1cccc2ccccc12 | 14.4 µM
100 | O=C(N/N=C\c1cc(Cl)ccc1O)c1ccc(S(=O)(=O)N2CCCCC2)cc1 | 6.44 µM
101 | CC(=O)NC(C)c1cc(Cl)c2cccnc2c1O (stereo not drawn) | 10.7 µM
102 | Cc1cccc(NC2=C/C(=N/S(=O)(=O)c3cccs3)c3ccccc3C2=O)c1 | 3.97 µM
103 | CCCCCCn1ccc(=N)cc1 | 3.12 µM
104 | Cc1cc(C(=O)N/N=C/c2cc(N=Nc3ccccc3)ccc2O)n[nH]1 | 3.23 µM
105 | Oc1ccccc1/C=N/Nc1nccnc1Cl | 3.97 µM
106 | Cc1ccc(-c2[nH]ncc2/C=N/n2c(COc3ccccc3C)nc3ccccc3c2=O)cc1 | 8.38 µM
107 | COc1cccc(Cn2c(NCc3ccco3)nc3c2c(=O)n(C)c(=O)n3C)c1 | 6.42 µM
108 | CNC1=C(N(C(C)=O)c2ccc(Br)cc2)C(=O)c2ccccc2C1=O | 0.943 µM
